In patent publication US9441261B2, “Use of bacterial beta-lactamase for in vitro diagnostics and in vivo imaging, diagnostics and therapeutics” (priority 2008, dated 2016):
“Also recorded” adds a separate entry of the source. Where two headings read alike, the source gives them in different places.

Legend:
Mtb BlaC [1] = target: T1, Mtb BlaC (Mycobacterium tuberculosis, UniProt P9WKD3); experiment: Hydrolysis kinetics of coumarin-based lactam probes by Mtb BlaC (fluorescence of released 7-hydroxycoumarin); format: biochemical
TEM-1 Bla [2] = target: T2, TEM-1 Bla (Escherichia coli, UniProt P62593); format: biochemical, E. coli; settings: for hydrolysis by TEM-1 bla: in words
Mtb BlaC [3] = target: T1, Mtb BlaC; format: biochemical; settings: for enzyme preference Mtb BlaC versus TEM-1 Bla: in words
Bla = Bla (Escherichia coli, UniProt P62593); format: biochemical; settings: CC1 versus analog without inserted double bond
Bacillus Calmette-Guerin = format: cell-based, Mycobacterium bovis; settings: 2 ng/μl rifampicin or 0.2 ng/μl INH, sputum, CDG-OMe, 24 hour
[4] = test system: CCN1CCN(C(=O)N[C@@H](C(=O)N[C@@H]2C(=O)N3C(C(=O)O)=C(CSc4nnnn4C)CS[C@H]23)c2ccc(O)cc2)C(=O)C1=O; experiment: purified protein, by the assay type
Bla in live E. coli = experiment: Detection of Bla activity in living E. coli; format: cell-based; settings: E. coli with ampicillin resistant plasmid, LB media
TEM-1 Bla [5] = target: T2, TEM-1 Bla; settings: cefoperazone versus CNIR5

T1 sequence (P9WKD3 35-307): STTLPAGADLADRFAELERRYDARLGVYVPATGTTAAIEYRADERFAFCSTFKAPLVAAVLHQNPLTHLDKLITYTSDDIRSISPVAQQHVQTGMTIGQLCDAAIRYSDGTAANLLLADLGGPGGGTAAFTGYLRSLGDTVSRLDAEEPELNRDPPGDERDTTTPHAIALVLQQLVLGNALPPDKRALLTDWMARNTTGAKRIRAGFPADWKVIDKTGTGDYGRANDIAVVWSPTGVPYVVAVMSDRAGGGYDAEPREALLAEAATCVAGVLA
T2 sequence (P62593 24-286 limits assumed): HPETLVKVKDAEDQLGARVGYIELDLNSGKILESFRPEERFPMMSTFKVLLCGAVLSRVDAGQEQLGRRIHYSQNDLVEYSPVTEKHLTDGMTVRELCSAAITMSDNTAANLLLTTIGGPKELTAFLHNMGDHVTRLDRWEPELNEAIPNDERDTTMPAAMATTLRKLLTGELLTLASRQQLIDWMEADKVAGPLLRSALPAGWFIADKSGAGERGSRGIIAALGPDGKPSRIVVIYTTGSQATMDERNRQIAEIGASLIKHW
Chain of Bla (P62593 24-286 limits assumed): as above

CO[C@@]1(NC(=O)Cc2ccccc2)C(=O)N2C(C(=O)O)=C(COc3ccc4ccc(=O)oc4c3)CS[C@@H]21 [CDC-OMe]
kcat/Km for blaC larger than for TEM-1 bla (Mtb BlaC [1]): 1,400 fold

O=C(Cc1ccccc1)N[C@@H]1C(=O)N2C(C(=O)O)=C(COc3ccc4ccc(=O)oc4c3)C[S+]([O-])[C@H]12 (some centres unmarked) [CDC-2]
kcat (Mtb BlaC [1]; blaC): 0.51 s⁻¹
kcat (TEM-1 Bla [2]; TEM-1 bla): 7 s⁻¹

CO/N=C(\C(=O)N[C@@H]1C(=O)N2C(C(=O)O)=C(COC(C)=O)CS[C@H]12)c1csc(N)n1 [cefotaxime]
enzyme preference Mtb BlaC versus TEM-1 Bla (Mtb BlaC [3]): better kinetics with the Mtb BlaC than TEM-1

O=C(Cc1ccccc1)N[C@@H]1C(=O)N2C(C(=O)O)=C(/C=C\COc3ccc4ccc(=O)oc4c3)CS[C@H]12 [CC1]
increase in the catalytic efficiency by the inserted double bond (Bla): ~5 fold

O=C(Cc1ccccc1)N[C@@H]1C(=O)N2C(C(=O)O)=C(COc3ccc4ccc(=O)oc4c3)CS[C@H]12 [CDC-1]
enzyme preference Mtb BlaC versus TEM-1 Bla (Mtb BlaC [1]; in words): TEM-1 Bla-preferred

NNC(=O)c1ccncc1 [isoniazide]
fluorescence of BCG with drug over time (Bacillus Calmette-Guerin): effectively no increase in fluorescence

Mtb BlaC (Mycobacterium tuberculosis H37Rv)
Km [4]: 76 µM
kcat [4]: 2.01 s⁻¹
kcat/Km [4]: 26000 s⁻¹ M⁻¹

TEM-1 Bla (Escherichia coli)
Km ([4]; other: TEM-1 Bla): 262 µM
kcat ([4]; other: TEM-1 Bla): 0.26 s⁻¹
kcat/Km ([4]; other: TEM-1 Bla): 1000 s⁻¹ M⁻¹

CO[C@@]1(NC(C)=O)C(=O)N2C(C(=O)O)=C(COc3ccc4ccc(=O)oc4c3)CS[C@@H]21 [4-64]
hydrolysis by TEM-1 bla (TEM-1 Bla [2]): so slow that cannot be determined

CCCC(=O)Oc1cc2oc(=O)c(C(=O)NCC(=O)N[C@@H]3C(=O)N4C(C(=O)OCOC(C)=O)=C(CSc5ccc6c(c5)C(=O)OC65c6ccc(OC(C)=O)cc6Oc6cc(OC(C)=O)ccc65)CS[C@H]34)cc2cc1Cl [CCF2/AM]
detection of Bla in live E. coli (Bla in live E. coli): not detected

CCN1CCN(C(=O)N[C@@H](C(=O)N[C@@H]2C(=O)N3C(C(=O)O)=C(CSc4nnnn4C)CS[C@H]23)c2ccc(O)cc2)C(=O)C1=O [cefoperazone]
faster kinetics with the Mtb enzyme than the TEM-1 enzyme (Mtb BlaC [3]): 10-100 fold
enzyme preference Mtb BlaC versus TEM-1 Bla (Mtb BlaC [3]): preferred substrate for Mtb BlaC as compared to TEM-1 Bla; also recorded: better kinetics with the Mtb BlaC than TEM-1
kcat/KM for TEM-1 Bla smaller than that of CNIR5 (TEM-1 Bla [5]): 100 fold

CCO[C@@]1(NC(=O)Cc2ccccc2)C(=O)N2C(C(=O)O)=C(COc3ccc4ccc(=O)oc4c3)CS[C@@H]21 [CDC-OEt]
hydrolysis by TEM-1 bla (TEM-1 Bla [2]): so slow that cannot be determined

CO[C@@]1(NC(=O)Cc2cccs2)C(=O)N2C(C(=O)O)=C(COC(N)=O)CS[C@@H]21 [cefoxitin]
enzyme preference Mtb BlaC versus TEM-1 Bla (Mtb BlaC [3]): better kinetics with the Mtb BlaC than TEM-1
